Experimental data reported in US20240109917A1 (ACTELION PHARMACEUTICALS LTD, priority 2020, published 2024).

Experiments:
[1] = biological target: Tb-labeled inactive PDGFRβ (Homo sapiens (Human), UniProt P09619); test: PDGFRβ LanthaScreen Assay; type: binding; settings: read-out: PDGFR Lantha IC50
VEGFR2, unphosphorylated = VEGFR2, unphosphorylated (Homo sapiens (Human), UniProt P35968); test: VEGFR ADP GLO Assay; type: biochemical
[2] = biological target: His6-TEV-PDGFRβ (557-1016) (Homo sapiens (Human), UniProt P09619); test: PDGFRβ HTRF Assay; type: biochemical; settings: read-out: PDGFR HTRF IC50
Sequence of His6-TEV-PDGFRβ (557-1016) (P09619 557-1016): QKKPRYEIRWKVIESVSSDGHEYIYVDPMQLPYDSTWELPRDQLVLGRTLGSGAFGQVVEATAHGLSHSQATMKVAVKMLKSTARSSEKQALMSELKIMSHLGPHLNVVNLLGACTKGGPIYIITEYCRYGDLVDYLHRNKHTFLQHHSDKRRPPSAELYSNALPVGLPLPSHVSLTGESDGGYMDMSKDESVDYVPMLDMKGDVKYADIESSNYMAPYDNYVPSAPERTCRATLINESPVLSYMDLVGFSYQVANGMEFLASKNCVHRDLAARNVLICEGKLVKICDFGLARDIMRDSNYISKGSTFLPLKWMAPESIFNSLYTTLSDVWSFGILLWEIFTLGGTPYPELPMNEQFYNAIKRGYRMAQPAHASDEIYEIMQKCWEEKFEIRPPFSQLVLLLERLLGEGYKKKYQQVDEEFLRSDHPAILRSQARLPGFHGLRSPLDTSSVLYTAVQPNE
Outline: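 Human PDGFRβ (557-1016) pre-incubated with compound for 30 min at RT in pH 7.5 HEPES/MgCl2/EGTA/Brij-35/DTT buffer. Reaction started with ATP and TK-biotin peptide, run 3 h at RT, then quenched with EDTA-containing Eu-cryptate antibody/streptavidin-XL665. HTRF 665/620 nm ratio read after 60 min; percent inhibition relative to DMSO and 10 μM imatinib controls.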

Sequence of VEGFR2, unphosphorylated (P35968 20-1356): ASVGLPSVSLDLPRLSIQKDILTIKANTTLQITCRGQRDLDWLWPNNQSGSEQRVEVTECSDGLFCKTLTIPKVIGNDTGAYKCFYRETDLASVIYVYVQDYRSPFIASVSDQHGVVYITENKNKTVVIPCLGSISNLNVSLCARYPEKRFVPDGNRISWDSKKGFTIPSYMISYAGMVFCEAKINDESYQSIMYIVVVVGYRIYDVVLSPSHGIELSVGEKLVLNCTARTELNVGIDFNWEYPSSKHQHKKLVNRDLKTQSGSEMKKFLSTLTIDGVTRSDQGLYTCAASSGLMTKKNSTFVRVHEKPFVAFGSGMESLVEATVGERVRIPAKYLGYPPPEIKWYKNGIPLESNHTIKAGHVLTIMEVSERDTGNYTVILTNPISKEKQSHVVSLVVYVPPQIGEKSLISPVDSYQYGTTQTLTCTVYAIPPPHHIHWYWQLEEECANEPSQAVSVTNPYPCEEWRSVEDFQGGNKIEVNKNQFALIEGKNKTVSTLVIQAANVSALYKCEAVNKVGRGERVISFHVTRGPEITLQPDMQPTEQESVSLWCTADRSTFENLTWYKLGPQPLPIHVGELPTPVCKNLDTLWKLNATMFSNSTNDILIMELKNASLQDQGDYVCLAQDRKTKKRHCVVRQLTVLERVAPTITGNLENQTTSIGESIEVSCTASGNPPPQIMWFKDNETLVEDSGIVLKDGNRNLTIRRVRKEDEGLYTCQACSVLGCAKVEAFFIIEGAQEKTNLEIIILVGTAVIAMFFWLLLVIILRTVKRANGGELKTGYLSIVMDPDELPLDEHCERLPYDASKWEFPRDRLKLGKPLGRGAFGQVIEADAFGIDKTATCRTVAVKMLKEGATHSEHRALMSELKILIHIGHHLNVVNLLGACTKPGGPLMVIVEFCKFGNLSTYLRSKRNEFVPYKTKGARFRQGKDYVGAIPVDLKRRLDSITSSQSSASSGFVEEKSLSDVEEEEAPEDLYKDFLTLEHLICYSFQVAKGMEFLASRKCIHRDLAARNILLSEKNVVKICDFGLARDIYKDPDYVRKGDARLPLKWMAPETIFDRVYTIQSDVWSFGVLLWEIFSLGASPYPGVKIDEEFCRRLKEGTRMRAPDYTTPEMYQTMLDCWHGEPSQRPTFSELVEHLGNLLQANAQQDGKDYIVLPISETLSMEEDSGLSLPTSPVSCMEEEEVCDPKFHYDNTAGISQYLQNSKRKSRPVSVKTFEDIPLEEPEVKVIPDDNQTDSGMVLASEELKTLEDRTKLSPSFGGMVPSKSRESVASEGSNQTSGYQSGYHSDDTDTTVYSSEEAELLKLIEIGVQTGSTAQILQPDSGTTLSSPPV
Sequence of Tb-labeled inactive PDGFRβ (P09619 33-1106): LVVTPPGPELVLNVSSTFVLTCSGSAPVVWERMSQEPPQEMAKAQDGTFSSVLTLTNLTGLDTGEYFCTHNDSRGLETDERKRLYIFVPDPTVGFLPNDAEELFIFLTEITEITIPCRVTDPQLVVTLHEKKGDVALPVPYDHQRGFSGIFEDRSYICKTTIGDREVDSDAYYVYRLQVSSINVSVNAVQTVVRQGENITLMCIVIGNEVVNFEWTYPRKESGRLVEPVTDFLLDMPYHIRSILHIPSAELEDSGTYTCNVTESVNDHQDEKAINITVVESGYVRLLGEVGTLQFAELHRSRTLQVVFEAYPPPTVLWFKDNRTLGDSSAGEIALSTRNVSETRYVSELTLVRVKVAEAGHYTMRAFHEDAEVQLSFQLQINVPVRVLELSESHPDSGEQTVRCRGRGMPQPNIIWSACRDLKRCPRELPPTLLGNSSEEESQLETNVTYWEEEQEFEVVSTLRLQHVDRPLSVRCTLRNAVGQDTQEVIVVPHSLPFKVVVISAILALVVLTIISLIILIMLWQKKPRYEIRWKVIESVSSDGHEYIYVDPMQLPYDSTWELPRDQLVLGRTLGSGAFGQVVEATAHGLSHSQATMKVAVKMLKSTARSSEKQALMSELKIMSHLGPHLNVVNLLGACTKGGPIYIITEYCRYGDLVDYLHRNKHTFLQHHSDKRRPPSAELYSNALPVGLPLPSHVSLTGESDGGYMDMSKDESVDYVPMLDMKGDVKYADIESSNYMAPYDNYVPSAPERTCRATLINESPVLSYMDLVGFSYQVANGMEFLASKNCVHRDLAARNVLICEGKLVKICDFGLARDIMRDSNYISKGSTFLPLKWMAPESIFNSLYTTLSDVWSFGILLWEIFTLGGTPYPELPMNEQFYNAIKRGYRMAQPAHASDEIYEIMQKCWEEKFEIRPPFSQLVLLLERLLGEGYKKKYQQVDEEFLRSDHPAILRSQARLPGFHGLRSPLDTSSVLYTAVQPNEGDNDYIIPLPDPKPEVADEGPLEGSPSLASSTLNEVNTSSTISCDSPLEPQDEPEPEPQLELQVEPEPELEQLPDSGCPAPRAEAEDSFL

Cc1ncc(NC(=O)CCN2CCCC2(C)C)cc1NC(=O)c1cnn2cc(-n3ncc4cccnc43)sc12 [Example 260, N-(5-(3-(2,2-dimethylpyrrolidin-1-yl)propanamido)-2-methylpyridin-3-yl)-2-(1H-pyrazolo[3,4-b]pyridin-1-yl)pyrazolo[5,1-b]thiazole-7-carboxamide]
IC50 [1]: 2.1 nM
IC50 (VEGFR2, unphosphorylated): > 7500 nM
IC50 [2]: 0.3 nM

Cc1ncc(NC(=O)[C@@H]2C[C@H](C)CN2C)cc1NC(=O)c1cnn2cc(-c3cccnc3O)sc12 [Example 316, N-(5-((2S,4S)-1,4-dimethylpyrrolidine-2-carboxamido)-2-methylpyridin-3-yl)-2-(2-hydroxypyridin-3-yl)pyrazolo[5,1-b]thiazole-7-carboxamide]
IC50 [1]: 21.7 nM
IC50 (VEGFR2, unphosphorylated): > 7500 nM
IC50 [2]: 1.9 nM

Cc1ncc(NC(=O)CN2CC(C)(C)C2)cc1NC(=O)c1cnn2cc(-c3cnn(C)c3)sc12 [Example 22, N-(5-(2-(3,3-dimethylazetidin-1-yl)acetamido)-2-methylpyridin-3-yl)-2-(1-methyl-1H-pyrazol-4-yl)pyrazolo[5,1-b]thiazole-7-carboxamide]
IC50 [1]: 8.6 nM
IC50 (VEGFR2, unphosphorylated): > 7500 nM
IC50 [2]: 0.7 nM

Cc1ncc(NC(=O)CN(C)C2CCOCC2)cc1NC(=O)c1cnn2cc(-c3cnn(C(F)F)c3)sc12 [Example 295, 2-(1-(difluoromethyl)-1H-pyrazol-4-yl)-N-(2-methyl-5-(2-(methyl(tetrahydro-2H-pyran-4-yl)amino)acetamido)pyridin-3-yl)pyrazolo[5,1-b]thiazole-7-carboxamide]
IC50 [1]: 13.5 nM
IC50 (VEGFR2, unphosphorylated): > 7500 nM
IC50 [2]: 0.7 nM

Cc1ncc(NC(=O)CN2CC(C)(C)C2)cc1NC(=O)c1cnn2cc(-c3cnn(CC(N)=O)c3)sc12 [Example 267, 2-(1-(2-amino-2-oxoethyl)-1H-pyrazol-4-yl)-N-(5-(2-(3,3-dimethylazetidin-1-yl)acetamido)-2-methylpyridin-3-yl)pyrazolo[5,1-b]thiazole-7-carboxamide]
IC50 [1]: 13.7 nM
IC50 (VEGFR2, unphosphorylated): > 7500 nM
IC50 [2]: 0.9 nM

Cc1ncc(NC(=O)CN2CC(C)(C)C2)cc1NC(=O)c1cnn2cc(-c3cnn(CC(C)O)c3)sc12 (stereo not drawn) [Example 281, N-(5-(2-(3,3-dimethylazetidin-1-yl)acetamido)-2-methylpyridin-3-yl)-2-(1-(2-hydroxypropyl)-1H-pyrazol-4-yl)pyrazolo[5,1-b]thiazole-7-carboxamide]
IC50 [1]: 3.8 nM
IC50 (VEGFR2, unphosphorylated): > 7500 nM
IC50 [2]: 0.4 nM

CNC(=O)c1cc(-c2cn3ncc(C(=O)Nc4cc(NC(=O)CN5CC(C)(C)C5)cnc4C)c3s2)ccn1 [Example 274, N-(5-(2-(3,3-dimethylazetidin-1-yl)acetamido)-2-methylpyridin-3-yl)-2-(2-(methylcarbamoyl)pyridin-4-yl)pyrazolo[5,1-b]thiazole-7-carboxamide]
IC50 [1]: 21.4 nM
IC50 (VEGFR2, unphosphorylated): > 7500 nM
IC50 [2]: 1 nM

Cc1ncc(NC(=O)CN2CC(C)(C)C2)cc1NC(=O)c1cnn2cc(-c3cnn(CC4CC4)c3)sc12 [Example 270, 2-(1-(cyclopropylmethyl)-1H-pyrazol-4-yl)-N-(5-(2-(3,3-dimethylazetidin-1-yl)acetamido)-2-methylpyridin-3-yl)pyrazolo[5,1-b]thiazole-7-carboxamide]
IC50 [1]: 5.4 nM
IC50 (VEGFR2, unphosphorylated): > 7500 nM
IC50 [2]: 0.4 nM

COc1ncccc1-c1cn2ncc(C(=O)Nc3cc(NC(=O)OCCN4CCCC4(C)C)cnc3C)c2s1 [Example 254, 2-(2,2-dimethylpyrrolidin-1-yl)ethyl (5-(2-(2-methoxypyridin-3-yl)pyrazolo[5,1-b]thiazole-7-carboxamido)-6-methylpyridin-3-yl)carbamate]
IC50 [1]: 2.6 nM
IC50 (VEGFR2, unphosphorylated): > 7500 nM
IC50 [2]: 0.2 nM

CC(=O)Nc1cc(-c2cn3ncc(C(=O)Nc4cc(NC(=O)CN5CC(C)(C)C5)cnc4C)c3s2)ccn1 [Example 273, 2-(2-acetamidopyridin-4-yl)-N-(5-(2-(3,3-dimethylazetidin-1-yl)acetamido)-2-methylpyridin-3-yl)pyrazolo[5,1-b]thiazole-7-carboxamide]
IC50 [1]: 3.6 nM
IC50 (VEGFR2, unphosphorylated): > 7500 nM
IC50 [2]: 0.2 nM

Cc1ncc(NC(=O)CN2CC(C)(C)C2)cc1NC(=O)c1cnn2cc(-c3ccc(CO)o3)sc12 [Example 292, N-(5-(2-(3,3-dimethylazetidin-1-yl)acetamido)-2-methylpyridin-3-yl)-2-(5-(hydroxymethyl)furan-2-yl)pyrazolo[5,1-b]thiazole-7-carboxamide]
IC50 [1]: 2.2 nM
IC50 (VEGFR2, unphosphorylated): > 7500 nM
IC50 [2]: 0.3 nM

Cc1ncc(NC(=O)CN2CC(C)(C)C2)cc1NC(=O)c1cnn2cc(-c3cnn(C(F)(F)F)c3)sc12 [Example 269, N-(5-(2-(3,3-dimethylazetidin-1-yl)acetamido)-2-methylpyridin-3-yl)-2-(1-(trifluoromethyl)-1H-pyrazol-4-yl)pyrazolo[5,1-b]thiazole-7-carboxamide]
IC50 [1]: 71.2 nM
IC50 (VEGFR2, unphosphorylated): > 7500 nM
IC50 [2]: 1.8 nM

COCCn1cc(-c2cn3ncc(C(=O)Nc4cc(NC(=O)CN5CCC6(CC6)C5)cnc4C)c3s2)cn1 [Example 326, N-(5-(2-(5-azaspiro[2.4]heptan-5-yl)acetamido)-2-methylpyridin-3-yl)-2-(1-(2-methoxyethyl)-1H-pyrazol-4-yl)pyrazolo[5,1-b]thiazole-7-carboxamide]
IC50 [1]: 3.7 nM
IC50 (VEGFR2, unphosphorylated): > 7500 nM
IC50 [2]: 0.4 nM

Cc1ncc(NC(=O)CN2CCCCC23COC3)cc1NC(=O)c1cnn2cc(-c3cnn(C)c3)sc12 [Example 25, N-(5-(2-(2-oxa-5-azaspiro[3.5]nonan-5-yl)acetamido)-2-methylpyridin-3-yl)-2-(1-methyl-1H-pyrazol-4-yl)pyrazolo[5,1-b]thiazole-7-carboxamide]
IC50 [1]: 6.6 nM
IC50 (VEGFR2, unphosphorylated): > 7500 nM
IC50 [2]: 0.7 nM

Cc1ncc(NC(=O)CN2CC(C)(C)C2)cc1NC(=O)c1cnn2cc(-c3ccnc(N4CCOCC4)c3)sc12 [Example 284, N-(5-(2-(3,3-dimethylazetidin-1-yl)acetamido)-2-methylpyridin-3-yl)-2-(2-morpholinopyridin-4-yl)pyrazolo[5,1-b]thiazole-7-carboxamide]
IC50 [1]: 2.6 nM
IC50 (VEGFR2, unphosphorylated): > 7500 nM
IC50 [2]: 0.2 nM

COc1ncccc1-c1cn2ncc(C(=O)Nc3cc(NC(=O)[C@@H]4C[C@H](C)CN4C)cnc3C)c2s1 [Example 317, N-(5-((2S,4S)-1,4-dimethylpyrrolidine-2-carboxamido)-2-methylpyridin-3-yl)-2-(2-methoxypyridin-3-yl)pyrazolo[5,1-b]thiazole-7-carboxamide]
IC50 [1]: 2.5 nM
IC50 (VEGFR2, unphosphorylated): > 7500 nM
IC50 [2]: 0.3 nM

COc1ncccc1-c1cn2ncc(C(=O)Nc3cc(NC(=O)CN4CCOCC45CCC5)cnc3C)c2s1 [Example 310, N-(5-(2-(8-oxa-5-azaspiro[3.5]nonan-5-yl)acetamido)-2-methylpyridin-3-yl)-2-(2-methoxypyridin-3-yl)pyrazolo[5,1-b]thiazole-7-carboxamide]
IC50 [1]: 1.4 nM
IC50 (VEGFR2, unphosphorylated): > 7500 nM
IC50 [2]: 0.3 nM

Cc1ncc(NC(=O)CN2CCC3(CCOC3)C2)cc1NC(=O)c1cnn2cc(-c3cnn(C)c3)sc12 (stereo not drawn) [Example 19, N-(5-(2-(2-oxa-7-azaspiro[4.4]nonan-7-yl)acetamido)-2-methylpyridin-3-yl)-2-(1-methyl-1H-pyrazol-4-yl)pyrazolo[5,1-b]thiazole-7-carboxamide]
IC50 [1]: 4.2 nM
IC50 (VEGFR2, unphosphorylated): > 7500 nM
IC50 [2]: 0.7 nM
